SMILES strings stand for the structures. Where two headings read alike, the source gives them in different places.

As usually defined, the IC50 is the midpoint of a concentration-inhibition curve.

In assay [1] the test system is substantia nigra pp38. Description: Substantia nigra pp38 protein expression in MPTP Parkinson's disease model mouse (immunofluorescence). It is filed as in vivo. The settings on record: percentage of mean intensity of blank control group, gavage 21 days after MPTP modeling. Here is the method: (§1) Neurotoxins can be used to establish PD animal models. Currently, 1-methyl-4-phenyl-1,2,3,6-tetrahydropyridine (MPTP) is the sole synthetic toxin which is recognized to induce PD symptoms in human and non-human primates and in mice. Using MPTP subacute modeling method, C57BL/6J male mice were intraperitoneally injected with MPTP 30 mg/kg, once a day for 5 consecutive days. The experiment animals were divided into blank control group, MPTP model group, and compound treatment group. For the […] compound treatment group, the compound was administrated by gavage for 21 consecutive days after the completion of modeling; for the MPTP model group, the normal saline was administrated by gavage for 21 consecutive days after the completion of modeling; and for the blank control group, the normal saline was first intraperitoneally injected for 5 days, and then administrated by gavage for 21 days.
The p38 mitogen-activated protein kinase (p38 MAPK) is expressed in both neurons and glial cells, and is the intersection point of neuron-glial cell network information regulations. The activation of p38 signaling pathway is an important initiator of neuronal degeneration, which continuously induces the apoptosis of dopaminergic neurons in multiple ways. It has become a research hotspot for the treatment of PD. Studies have shown that the protective mechanism of CAPE against the death of primary cultured cerebellar granule neurons induced by glutamate lies in inhibiting the activation of p38 phosphorylation and in turn inhibiting the activation of the caspase 3 apoptotic pathway to prevent neuronal apoptosis. Therefore, the MPTP-induced PD mouse model can be used to investigate the inhibitory effect of the target compounds on the activation of p38 phosphorylation on the overall animal level.
(§2) Half of experiment mice in each group were taken to separate the midbrain after perfusion and fixation. The tissue was trimmed, and the substantia nigra-striatum area was taken to prepare paraffin sections. The double immunofluorescence staining for TH and phosphorylated p38 was performed to observe the coexpression of TH and phosphorylated p38, for the statistics of the change in the phosphorylated p38 protein expression. The experiment included blank control group, MPTP model group, positive control group (caffeic acid phenethyl ester, CAPE), prototype control group (styryl sulfone compounds 3B, 3C, 3D, and 3G, whose structures are shown as above), and target compound group.

Assay [2] concerns substantia nigra CD11b. Description: Number of substantia nigra microglial cells with CD11b positive expression in MPTP Parkinson's disease model mouse (immunohistochemistry). It is filed as in vivo. To be noted: for Positive cell number (microglial cells with CD11b positive expression): substantia nigra, MPTP Parkinson's disease model mouse, immunohistochemistry. Here is the method:
as §1
(§3) Neuron-glial cell network homeostasis disorder is an important factor for the selective and progressive death of substantia nigra dopaminergic neurons in PD. In the neurotoxic effect of MPTP, the excessive activations of microglial cells and astrocytes produce a variety of inflammatory cytokines and reactive oxygen species (ROS). These inflammatory factors and ROS amplify their respective toxicities and mediate malignant feedback loop, causing a cascade inflammation response and aggravating the pathological process of PD. CD11b and GFAP are the marker proteins for activations of microglial cells and astrocytes, respectively. Therefore, the effect of the target compounds on the activations of the microglial cells and astrocytes in the substantia nigra, hippocampus, and midbrain areas of MPTP-induced PD mice can be investigated, to explore the mechanism of the anti-PD effect of the target compounds by inhibiting the neuroinflammation.
as §2, with “nigra” for “nigra-striatum”, “CD11b immunohistochemical” for “double immunofluorescence”, “staining” for “staining for TH and phosphorylated p38”, “performed” for “performed to observe the coexpression of TH and phosphorylated p38,”, “number of microglial cells with CD11b positive” for “phosphorylated p38 protein”

Assay [3] deals with hippocampus CD11b. Description: Number of hippocampus microglial cells with CD11b positive expression in MPTP Parkinson's disease model mouse (immunohistochemistry). It is filed as in vivo. The settings on record: for Positive cell number (microglial cells with CD11b positive expression): hippocampus, MPTP Parkinson's disease model mouse, immunohistochemistry. As for the experimental part: as §1, §3
as §2, with “hippocampus” for “substantia nigra-striatum”, “CD11b immunohistochemical” for “double immunofluorescence”, “staining” for “staining for TH and phosphorylated p38”, “performed” for “performed to observe the coexpression of TH and phosphorylated p38,”, “number of microglial cells with CD11b positive” for “phosphorylated p38 protein”

Assay [4] relates to HO-1. Description: Midbrain HO-1 expression in MPTP Parkinson's disease model mouse (western blot). To be noted: for Expression (HO-1/GAPDH): midbrain, MPTP Parkinson's disease model mouse, western blot. It is filed as in vivo. As for the experimental part:
as §1
Oxidative stress is an important pathogenic mechanism of PD. Dopaminergic neurons are more sensitive to oxidative stress and are more susceptible to oxidative stress damage. Heme oxygenase (HO-1), a phase II enzyme, is also a well-known antioxidase. It plays an important protective role by catalyzing the conversion of free radicals into non-toxic products and increasing their water solubility to facilitate the elimination of free radicals, and maintain the redox balance in the body. It plays an important role in the process of protecting cells against oxidative stress damage. The activation of p38 protein phosphorylation has a negative regulatory effect on phase II enzymes. […] Using HO-1 as an indicator, the inhibitory effect of the target compounds on MPTP-induced oxidative stress damage in PD mice can be investigated.
HO-1 is expressed in astrocytes, microglial cells, and neurons. The total proteins of the midbrain tissue of mice in each experiment group were extracted, to determine the expression of phase II enzyme HO-1 in the midbrain of mice by western blot using GAPDH as the internal reference. The experiment included blank control group, MPTP model group, positive control group (caffeic acid phenethyl ester, CAPE), prototype control group (styryl sulfone compounds 3B, 3C, 3D, and 3G, whose structures are shown as above), and target compound group.
In general terms: Immunoblotting shows a protein as a band on a membrane.

For assay [5], the target named is acetylcholinesterase (AchE) (Homo sapiens, UniProt P22303). Description: biochemical. Here is the method:
The modified Ellman method was used to determine the inhibitory activity on acetylcholinesterase. The principle lies in that acetylthiocholine iodide is decomposed under the action of acetylcholinesterase (AchE) to generate thiocholine. The thiocholine is quickly reacted with DTNB as the colour-developing agent to generate a yellow substance with light absorption at 405 nm. To a 96-well microplate, 50 μl of enzyme reaction buffer, 125 μl of DTNB (3 mM), 25 μl of test sample or positive control drug, and 25 μl of AchE (0.2 U/ml) were successively added. After incubation at room temperature for 5 min, 25 μl of ATCI (15 mM) was added. After incubation at room temperature for 8 min, the absorbance value was determined at 405 nm with a microplate reader. A blank control group without enzyme (25 μl PBS instead of the sample to be tested) was also established.

Where [6] appears, read: acetylcholinesterase, modified Ellman method, read-out: IC50.

Chain of acetylcholinesterase (AchE) (P22303 32-614, species assumed): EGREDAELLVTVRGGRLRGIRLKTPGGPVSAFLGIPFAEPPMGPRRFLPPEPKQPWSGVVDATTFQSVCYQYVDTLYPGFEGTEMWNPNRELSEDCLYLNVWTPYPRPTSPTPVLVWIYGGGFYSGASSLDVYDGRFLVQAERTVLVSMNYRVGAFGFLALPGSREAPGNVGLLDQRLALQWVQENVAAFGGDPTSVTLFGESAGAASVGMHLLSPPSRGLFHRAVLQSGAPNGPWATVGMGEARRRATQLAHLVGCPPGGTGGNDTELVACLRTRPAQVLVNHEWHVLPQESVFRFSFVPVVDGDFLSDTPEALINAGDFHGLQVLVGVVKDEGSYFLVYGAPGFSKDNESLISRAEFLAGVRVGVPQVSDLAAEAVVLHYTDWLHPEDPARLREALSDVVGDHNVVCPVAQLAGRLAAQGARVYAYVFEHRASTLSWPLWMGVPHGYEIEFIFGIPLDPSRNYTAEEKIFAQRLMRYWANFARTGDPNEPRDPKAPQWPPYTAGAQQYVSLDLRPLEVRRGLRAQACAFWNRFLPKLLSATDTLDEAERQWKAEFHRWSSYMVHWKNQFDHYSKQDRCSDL

Consider `CNC(=O)Oc1ccc(/C=C/S(=O)(=O)CC(Cl)c2ccc(Cl)c([N+](=O)[O-])c2)cc1O` (stereo not drawn) [Compound E2-2, (E)-4-{2-[2-chloro-2-(4-chloro-3-nitrophenyl)ethylsulfonyl]ethenyl}-2-hydroxyphenyl-N-methylcarbamate], for which, in assay [1], the “Expression (Immunofluorescence intensity %)” value was 96.01 ± 10.37%. Besides, the “Positive cell number (microglial cells with CD11b positive expression)” value (“Positive cell number” below) amounted to 40 ± 5 in assay [2] and 15 ± 2 in assay [3]. Also, in assay [4], the “Expression (HO-1/GAPDH)” value amounted to 1.58 ± 0.08. The IC50 in assay [5] turned out to be 51.3 ± 3.94 µM.

For the compound `CCN(CC)C(=O)Oc1ccc(/C=C/S(=O)(=O)Cc2ccc(C(C)(C)C)cc2)cc1OC(=O)N(CC)CC` [Compound G1-1, (E)-4-{2-[(4-t-butylphenyl)mesyl]ethenyl}-1,2-phenylenebis(diethylcarbamate)], the “Expression (Immunofluorescence intensity %)” value in assay [1] is on record as 82.16 ± 8.10%. Further, in assay [2], the “number of substantia nigra microglial cells with CD11b positive expression compared with the styryl sulfone prototype compounds” value is “significantly lower” and the “Positive cell number” value worked out at 36 ± 3. Besides, in assay [3], the “number of hippocampus microglial cells with CD11b positive expression compared with the styryl sulfone prototype compounds” value is recorded as “significantly lower” and the “Positive cell number” value turned out to be 6 ± 1. For the same compound, in assay [4], the “midbrain HO-1 expression compared with the styryl sulfone prototype compounds” value is on record as “significantly higher” and the “Expression (HO-1/GAPDH)” value turned out to be 1.35 ± 0.10. In assay [5] (setting [6]), the IC50 was found to be 10.8 ± 2.13 µM.

As for `CCOC(CS(=O)(=O)/C=C/c1ccc(OC(C)=O)c(OC(=O)Nc2ccc(NC)cc2)c1)C(OCC)c1ccc(OCc2ccccc2)c(O)c1` (stereo not drawn) [Compound H2-4, (E)-4-{2-[3-(4-benzyloxy-3-hydroxyphenyl)-2,3-diethoxypropyl]sulfonylethenyl}-2-[N-(4-methylaminophenyl)carbamoyloxy]phenyl acetate], the “Expression (Immunofluorescence intensity %)” value in assay [1] is listed as 103.17 ± 12.58%. For the same compound, the “Positive cell number” value in assay [2] stood at 29 ± 4; in assay [3], 7 ± 1. Also, in assay [4], the “Expression (HO-1/GAPDH)” value is on record as 0.95 ± 0.10. The IC50 in assay [5] (setting [6]) was 11.3 ± 1.34 µM.

Take `COCCN(C)C(=O)Oc1cc(/C=C/S(=O)(=O)CCc2cccc(-c3ccc(C)o3)c2)ccc1OC(C)=O` [Compound J1-4, (E)-2-[N-(2-methoxyethyl)-N-methylcarbamoyloxy]-4-{2-[3-(5-methylfur-2-yl)phenylethylsulfonyl]ethenyl}phenyl acetate]: the “Expression (Immunofluorescence intensity %)” value in assay [1] turned out to be 100.62 ± 13.35%. Moreover, the “Positive cell number” value is on record as 24 ± 5 in assay [2] and 10 ± 2 in assay [3]. Moreover, the “Expression (HO-1/GAPDH)” value in assay [4] stood at 1.25 ± 0.06. Also, in assay [5], inhibition was half-maximal at 8.54 ± 1.65 µM (IC50).

Take `CC(Br)C(Br)COc1cc(/C=C/S(=O)(=O)CCc2ccc(OCC(F)(F)F)cc2)ccc1OC(=O)Nc1ccsc1` (stereo not drawn) [Compound K1-3, (E)-2-(2,3-dibromobutoxy)-4-{2-[4-(2,2,2-trifluoroethoxy)phenylethylsulfonyl]ethenyl}phenyl-N-(thien-3-yl)carbamate]: the “Expression (Immunofluorescence intensity %)” value in assay [1] is recorded as 73.08 ± 18.10%. The “Positive cell number” value in assay [2] was found to be 32 ± 4; in assay [3], 16 ± 1. In assay [4], the “Expression (HO-1/GAPDH)” value is 0.83 ± 0.08. Also, the IC50 in assay [5] (setting [6]) was 22.3 ± 3.17 µM.

Consider `C=CCOc1ccc(C/C=C/S(=O)(=O)/C=C/c2ccc(OC(C)=O)c(OC(=O)N(CC=C)CC=C)c2)cc1` [Compound K1-4, 4-{(E)-2-[(E)-3-(4-allyloxyphenyl)prop-1-en-1-yl]sulfonylethenyl}-2-(N,N-diallylcarbamoyloxy)phenyl acetate], for which the “Expression (Immunofluorescence intensity %)” value in assay [1] is on record as 100.80 ± 5.48%. Moreover, the “Positive cell number” value in assay [2] came to 30 ± 4; in assay [3], 13 ± 2. Also, the “Expression (HO-1/GAPDH)” value in assay [4] turned out to be 1.02 ± 0.09. In addition, the IC50 in assay [5] (setting [6]) was 16.9 ± 1.22 µM.

For the compound `COc1cc(/C=C/S(=O)(=O)Cc2cc(OC)c(OC)c(OC)c2)ccc1OC(=O)N(c1ccccc1)c1ccccc1` [Compound K3-3, (E)-2-methoxy-4-{2-[(3,4,5-trimethoxyphenyl)mesyl]ethenyl}-phenyl-N,N-diphenylcarbamate], the “Expression (Immunofluorescence intensity %)” value in assay [1] amounted to 111.17 ± 9.62%. The figures for the “Positive cell number” value in assay [2] and in assay [3] were 39 ± 3 and 18 ± 1, respectively. In addition, the “Expression (HO-1/GAPDH)” value in assay [4] was determined as 0.69 ± 0.07. For the same compound, the IC50 in assay [5] (setting [6]) was determined as 38.3 ± 2.79 µM.

For the compound `O=C(NC(=O)C(F)(F)F)Oc1ccc(/C=C/S(=O)(=O)C(F)(F)c2ccc(Oc3ccccn3)cc2)cc1OC(=O)C(F)(F)C(F)(F)F` [Compound L1-4, (E)-5-{2-[(4-[pyridin-2-yl-oxy]phenyl)difluoromethylsulfonyl]ethenyl}-2-[N-(2,2,2-trifluoroacetyl)carbamoyloxy]phenyl-2,2,3,3,3-pentafluoropropionate], the “Expression (Immunofluorescence intensity %)” value in assay [1] was 62.93 ± 17.51%. Moreover, the “Positive cell number” value in assay [2] worked out at 35 ± 2; in assay [3] it was 15 ± 2. For the same compound, in assay [4], the “Expression (HO-1/GAPDH)” value stood at 1.13 ± 0.12. Also, the IC50 in assay [5] (setting [6]) turned out to be 9.48 ± 1.34 µM.

`CCN(C)C(=O)Oc1ccc(/C=C/S(=O)(=O)CC(c2ccc(-c3ccc(OC)c(OC)c3)cc2)[N+](=O)[O-])cc1OC(=O)N(C)CC` (stereo not drawn) [Compound M1-1, (E)-4-{2-[2-(3′,4′-dimethoxy-[1,1′-biphenyl]-4-yl)-2-nitroethylsulfonyl]ethenyl}-1,2-phenylenebis(N-ethyl-N-methylcarbamate)]: the “Expression (Immunofluorescence intensity %)” value in assay [1] is recorded as 98.35 ± 6.93%. Moreover, the “Positive cell number” value was found to be 20 ± 3 in assay [2] and 5 ± 1 in assay [3]. For the same compound, the “Expression (HO-1/GAPDH)” value in assay [4] is 1.29 ± 0.07. In assay [5], the half-inhibitory concentration (IC50) turned out to be 6.6 ± 0.71 µM.
